Test system: soluble epoxide hydrolase (sEH)
Assay: Fluorescent Assay for Mouse and Human Soluble Epoxide Hydrolase (CMNPC substrate)
Format: biochemical
Conditions: Concentration 50 nM
Excerpt: Fluorescent Assay for Mouse and Human Soluble Epoxide Hydrolase Recombinant mouse sEH (MsEH) and human sEH (HsEH) were produced in a baculovirus expression system as previously reported. Grant et al., J. Biol. Chem., 268:17628-17633 (1993); Beetham et al., Arch. Biochem. Biophys., 305:197-201 (1993). The expressed proteins were purified from cell lysate by affinity chromatography. Wixtrom et al., Anal. Biochem., 169:71-80 (1988). Protein concentration was quantified using the Pierce BCA assay using bovine serum albumin as the calibrating standard. The preparations were at least 97% pure as judged by SDS-PAGE and scanning densitometry. They contained no detectable esterase or glutathione transferase activity which can interfere with the assay. The assay was also evaluated with similar results in crude cell lysates or homogenate of tissues. The IC50s for each inhibitor were according to the following procedure: [drawing 218] […] Jones P. D. et. al.; Analytical Biochemistry 2005; 343: pp. 66-75) Bis/Tris HCl 25 mM pH 7.0 containing 0.1 mg/mL of BSA (buffer […] at 0.25 mM in DMSO. Mother solution of enzyme in buffer A (Mouse sEH at 6 μg/mL and Human sEH at 5 μg/mL). Inhibitor dissolved in DMSO at the appropriate concentration. In a black 96 well plate, fill all the wells with 150 μL of buffer A. Add 2 μL of DMSO in well A2 and A3, and then add 2 μL of inhibitor solution in A1 and A4 through A12. Add 150 μL of buffer A in row A, then mix several time and transfer 150 μL to row B. Repeat this operation up to row H. The 150 μL removed from row H is discarded. Add 20 μL of buffer A in column 1 and 2, then add 20 μL of enzyme solution to column 3 to 12. Incubate the plate for 5 minutes in the plate reader at 30° C. During incubation prepare the working solution of substrate by mixing 3.68 mL of buffer A (4×0.920 mL) with 266 μL (2×133 μL) of substrate solution). At t=0, add 30 μL of working substrate solution with multi-channel pipette labeled “Briggs 303” and start the reading ([S]final: 5 μM). Read with ex: 330 nm (20 nm) and em: 465 nm (20 nm) every 30 second for 10 minutes. The velocities are used to analyze and calculate the IC50s. Tables 4-6 show the activity of compounds when tested with the assay at 50, 500, 5000, 50000, and 500000 nM.

| SMILES | % Inhibition [%] |
| --- | --- |
| O=C(NCCc1ccc(OCc2ccccc2)cc1)C(O)CCC12CC3CC(CC(C3)C1)C2 (centres unmarked) [Compound 129, 4-Adamantan-1-yl-N-[2-(4-benzyloxy-phenyl)-ethyl]-2-hydroxy-butyramide] | 70 |

Same assay, conditions: Concentration 500 nM

| SMILES | % Inhibition [%] |
| --- | --- |
| COC(=O)CCCCCCCCCCCNC(=O)C(O)c1ccc(C(F)(F)F)cc1 (centres unmarked) [Compound 158, Methyl 12-(2-hydroxy-2-(4-(trifluoromethyl)phenyl)acetamido)dodecanoate] | 72 |
| Cc1ccc(S(=O)(=O)N2CCC(NC(=O)C(O)C34CC5CC(CC(C5)C3)C4)CC2)cc1 (centres unmarked) [Compound 124, 2-Adamantan-1-yl-2-hydroxy-N-[1-(toluene-4-sulfonyl)-piperidin-4-yl]-acetamide] | 80 |
| O=C(NC1CCN(S(=O)(=O)c2cccc(C(F)(F)F)c2)CC1)C(O)CC12CC3CC(CC(C3)C1)C2 (centres unmarked) [Compound 133, 3-Adamantan-1-yl-2-hydroxy-N-(1-(3-(trifluoromethyl)phenylsulfonyl)piperidin-4-yl)propanamide] | 83 |
| COC(=O)CCCCCCCCCCCNC(=O)C(O)CC12CC3CC(CC(C3)C1)C2 (centres unmarked) [Compound 160, Methyl 12-(3-adamantan-1-yl-2-hydroxypropanamido)dodecanoate] | 81 |
| COC(=O)CCCCCCCCCCCNC(=O)C(O)CCc1ccc(C(F)(F)F)cc1 (centres unmarked) [Compound 162, Methyl 12-(2-hydroxy-4-(4-(trifluoromethyl)phenyl)butanamido)dodecanoate] | 78 |
| Cc1ccc(S(=O)(=O)N2CCC(NC(=O)C(O)CCC34CC5CC(CC(C5)C3)C4)CC2)cc1 (centres unmarked) [Compound 138, 4-Adamantan-1-yl-2-hydroxy-N-(1-tosylpiperidin-4-yl)butanamide] | 79 |
| Cc1ccc(S(=O)(=O)N2CCC(NC(=O)C(O)CCC3CCCCC3)CC2)cc1 (centres unmarked) [Compound 140, 4-Cyclohexyl-2-hydroxy-N-(1-tosylpiperidin-4-yl)butanamide] | 78 |

Same assay, conditions: Concentration 5000 nM

| SMILES | % Inhibition [%] |
| --- | --- |
| CNS(=O)(=O)c1ccc(CCNC(=O)C(O)CCC23CC4CC(CC(C4)C2)C3)cc1 (centres unmarked) [Compound 156, 4-Adamantan-1-yl-2-hydroxy-N-(4-(N-methylsulfamoyl)phenethyl)butanamide] | 79 |
| O=C(Nc1ccc(OCc2ccccc2)cc1)C(O)CCc1ccc(C(F)(F)F)cc1 (centres unmarked) [Compound 130] | 89 |
| O=C(CC12CC3CC(CC(C3)C1)C2)C(=O)Nc1ccc(OCc2ccccc2)cc1 [Compound 17, 3-Adamantan-1-yl-N-(4-benzyloxy-phenyl)-2-oxo-propionamide] | 64 |
| O=C(NCCc1ccc(OCc2ccccc2)cc1)C(O)CC12CC3CC(CC(C3)C1)C2 (centres unmarked) [Compound 147, N-(4-(Benzyloxy)phenethyl)-3-adamantan-1-yl-2-hydroxypropanamide] | 93 |
| COc1ccc(C(=O)C(=O)NCC23CC4CC(CC(C4)C2)C3)cc1 [Compound 22] | 78 |
| Cc1ccc(S(=O)(=O)N2CCC(NC(=O)C(=O)C34CC5CC(CC(C5)C3)C4)CC2)cc1 [Compound 18, 2-Adamantan-1-yl-2-oxo-N-[1-(toluene-4-sulfonyl)-piperidin-4-yl]-acetamide] | 93 |
| O=C(Nc1cccc(OCCCN2CCOCC2)c1)C(O)c1ccc(C(F)(F)F)cc1 (centres unmarked) [Compound 101, 2-Hydroxy-N-[3-(3-morpholin-4-yl-propoxy)-phenyl]-2-(4-trifluoromethyl-phenyl)-acetamide] | 95 |
| O=C(CC12CC3CC(CC(C3)C1)C2)C(=O)Nc1cccc(OCc2ccccc2)c1 [Compound 15, 3-Adamantan-1-yl-N-(3-benzyloxy-phenyl)-2-oxo-propionamide] | 86 |
| O=C(NCCc1ccc(F)cc1)C(O)CCC12CC3CC(CC(C3)C1)C2 (centres unmarked) [Compound 145, 4-Adamantan-1-yl-N-(4-fluorophenethyl)-2-hydroxybutanamide] | 95 |
| Cc1ccc(S(=O)(=O)N2CCC(NC(=O)C(O)CCc3ccc(C(F)(F)F)cc3)CC2)cc1 (centres unmarked) [Compound 136, 2-Hydroxy-N-(1-tosylpiperidin-4-yl)-4-(4-(trifluoromethyl)phenyl)butanamide] | 83 |
| Cc1ccc(S(=O)(=O)N2CCC(NC(=O)C(=O)CC34CC5CC(CC(C5)C3)C4)CC2)cc1 [Compound 19, 3-Adamantan-1-yl-2-oxo-N-[1-(toluene-4-sulfonyl)-piperidin-4-yl]-propionamide] | 99 |
| O=C(NCCc1ccc(Oc2ccccc2)cc1)C(O)CCC12CC3CC(CC(C3)C1)C2 (centres unmarked) [Compound 151, 4-Adamantan-1-yl-2-hydroxy-N-(4-phenoxyphenethyl)butanamide] | 90 |
| O=C(NC1CCN(S(=O)(=O)c2ccc(Cl)cc2)CC1)C(O)CC12CC3CC(CC(C3)C1)C2 (centres unmarked) [Compound 148, N-(1-(4-Chlorophenylsulfonyl)piperidin-4-yl)-3-adamantan-1-yl-2-hydroxypropanamide] | 76 |
| O=C(Nc1cccc(OCc2ccccc2)c1)C(O)CC1CCCCC1 (centres unmarked) [Compound 126, N-(3-Benzyloxy-phenyl)-3-cyclohexyl-2-hydroxy-propionamide] | 78 |
| O=C(Nc1ccc(OCc2ccccc2)cc1)C(O)C12CC3CC(CC(C3)C1)C2 (centres unmarked) [Compound 118, 2-Adamantan-1-yl-N-(4-benzyloxy-phenyl)-2-hydroxy-acetamide] | 95 |

Same assay, conditions: Concentration 50000 nM

| SMILES | % Inhibition [%] |
| --- | --- |
| O=C(Nc1ccc(C(=O)NCCN2CCOCC2)cc1)C(=O)c1ccc(C(F)(F)F)cc1 [Compound 2, N-(2-Morpholin-4-yl-ethyl)-4-[2-oxo-2-(4-trifluoromethyl-phenyl)-acetylamino]-benzamide] | 82 |
| O=C(NCCN1CCOCC1)c1ccc(NC(=O)C(O)c2ccc(C(F)(F)F)cc2)cc1 (centres unmarked) [Compound 102, 4-[2-Hydroxy-2-(4-trifluoromethyl-phenyl)-acetylamino]-N-(2-morpholin-4-yl-ethyl)-benzamide] | 63 |
| O=C(CCc1ccc(C(F)(F)F)cc1)C(=O)Nc1ccc(OCc2ccccc2)cc1 [Compound 23] | 93 |
| COC1CCC(NC(=O)C(=O)c2ccc(C(F)(F)F)cc2)CC1 (centres unmarked) [Compound 4, N-(4-Methoxy-cyclohexyl)-2-oxo-2-(4-trifluoromethyl-phenyl)-acetamide] | 87 |
| O=C(Nc1ccc(-n2ccnc2)cc1)C(=O)C1CCCCC1 [Compound 11, 2-Cyclohexyl-N-(4-imidazol-1-yl-phenyl)-2-oxo-acetamide] | 80 |
| Cc1ccc(S(=O)(=O)N2CCC(NC(=O)C(=O)c3ccc(C(F)(F)F)cc3)CC2)cc1 [Compound 9, 2-Oxo-N-[1-(toluene-4-sulfonyl)-piperidin-4-yl]-2-(4-trifluoromethyl-phenyl)-acetamide] | 72 |
| COC1CCC(NC(=O)C(O)c2ccc(C(F)(F)F)cc2)CC1 (centres unmarked) [Compound 104, 2-Hydroxy-N-(4-methoxy-cyclohexyl)-2-(4-trifluoromethyl-phenyl)-acetamide] | 79 |
| O=C(NC12CC3CC(CC(C3)C1)C2)C(=O)c1cccc(OCc2ccccc2)c1 [Compound 3, N-Adamantan-1-yl-2-(3-benzyloxy-phenyl)-2-oxo-acetamide] | 96 |
| CCCC(=O)N1CCC(NC(=O)C(=O)C2CCCCC2)CC1 [Compound 16, N-(1-Butyryl-piperidin-4-yl)-2-cyclohexyl-2-oxo-acetamide] | 62 |
